The values below come from the NIST ThermoML archive (doi:10.1021/je300848z).

For the data set the following is noted: Liquid; for vapor or sublimation pressure: Ebulliometric method (Recirculating still).

± gives the expanded uncertainty stated by the source.

For the compound `Cc1ccc(C)cc1` [1,4-dimethylbenzene], the “vapor or sublimation pressure” value (379.85 K) is on record as 40 ± 0.34 kPa.

Turning to `CCCCC(CC)CCl` (centres undefined) [1-chloro-2-ethylhexane], the “vapor or sublimation pressure” value by setting is: (371.05 K) 9.9 ± 0.2 kPa; (375.35 K) 11.7 ± 0.2 kPa; (385.85 K) 17.1 ± 0.2 kPa; (394.25 K) 22.8 ± 0.2 kPa; (399.5 K) 27.1 ± 0.2 kPa; (403.5 K) 30.8 ± 0.2 kPa. Further, the “vapor or sublimation pressure” value was 33.2 ± 0.2 kPa (405.85 K); 39.9 ± 0.2 kPa (411.9 K); 40 ± 0.2 kPa (412.05 K); 49.4 ± 0.3 kPa (419.05 K); 59 ± 0.3 kPa (425.2 K); 69.6 ± 0.3 kPa (431.15 K). Further, the “vapor or sublimation pressure” value runs as follows: (436.65 K) 80.7 ± 0.3 kPa; (441.45 K) 91.6 ± 0.3 kPa; (445.4 K) 101.3 ± 0.3 kPa. Under “Equilibrium Still”, the Normal boiling temperature came out at 172.2 ± 0.2 °C.

Regarding `CCCCC(CC)CO` (centres undefined) [2-ethyl-1-hexanol], the “vapor or sublimation pressure” value (427.2 K) is listed as 40 ± 0.34 kPa.

Take `CN1CCCC1=O` [N-methylpyrrolidone]: the “vapor or sublimation pressure” value (441.8 K) is on record as 40 ± 0.34 kPa.

A word on the vapor or sublimation pressure: it is the equilibrium pressure above the liquid or solid.
